Values quoted from earlier work as cited in patent US8455021B2, “Composition for prophylaxis or treatment of urinary system infection and method thereof” (priority 2006, dated 2013).

Tests used:
MMP-2 = settings: Yu Cai et al., J pharm Pharmacol. 2003
MMP-9 = MMP-9 (Homo sapiens, UniProt P14780); settings: Yu Cai et al., J pharm Pharmacol. 2003
Sequence of MMP-9 (P14780 94-707, species assumed): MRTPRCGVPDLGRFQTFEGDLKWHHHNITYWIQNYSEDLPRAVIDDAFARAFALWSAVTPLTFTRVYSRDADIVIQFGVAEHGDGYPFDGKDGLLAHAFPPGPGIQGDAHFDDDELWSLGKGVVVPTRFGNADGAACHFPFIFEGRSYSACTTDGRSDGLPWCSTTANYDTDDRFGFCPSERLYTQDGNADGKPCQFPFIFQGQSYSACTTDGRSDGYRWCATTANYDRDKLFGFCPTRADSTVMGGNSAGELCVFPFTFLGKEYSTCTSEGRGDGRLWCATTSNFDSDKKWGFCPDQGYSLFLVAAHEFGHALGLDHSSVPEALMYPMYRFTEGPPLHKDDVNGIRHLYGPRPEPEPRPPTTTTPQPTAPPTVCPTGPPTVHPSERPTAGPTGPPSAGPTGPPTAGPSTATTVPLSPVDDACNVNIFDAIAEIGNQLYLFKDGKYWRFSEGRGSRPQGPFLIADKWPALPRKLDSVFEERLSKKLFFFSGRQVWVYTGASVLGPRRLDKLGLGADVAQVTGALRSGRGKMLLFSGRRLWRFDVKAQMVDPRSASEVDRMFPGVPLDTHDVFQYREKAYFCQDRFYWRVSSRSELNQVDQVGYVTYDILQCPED

C[C@@H]1O[C@@H](O[C@H]2C(=O)c3c(O)cc(O)cc3O[C@@H]2c2ccc(O)c(O)c2)[C@H](O)[C@H](O)[C@H]1O [astilbin]
activity of matrix metalloproteinase MMP-2 (MMP-2): inhibits the activity | activity of matrix metalloproteinase MMP-9 (MMP-9): inhibits the activity
